Source: BindingDB's records for doi:10.1021/jm500763m (Beijing Institute of Pharmacology & Toxicology, 2014)
Square brackets hold non-standard residues; d marks the D form. Peptide text beside a SMILES is read from it. * marks the point of attachment. X1 = C=CCOC(=O)[C@]12CC[C@@H](C(=C)C)[C@@H]1[C@H]1CC[C@@H]3[C@@]4(C)CC[C@H](OC(=O)CCc5cn(CC(=O)*)nn5)C(C)(C)[C@@H]4CC[C@@]3(C)[C@]1(C)CC2; X9 = C=CCOC(=O)[C@]12CC[C@@H](C)[C@H](C)[C@H]1C1=CC[C@@H]3[C@@]4(C)CC[C@H](OC(=O)CCc5cn(CC(=O)*)nn5)C(C)(C)[C@@H]4CC[C@@]3(C)[C@]1(C)CC2; X3 = C=C(C)[C@@H]1CC[C@]2(C(=O)O)CC[C@]3(C)[C@H](CC[C@@H]4[C@@]5(C)CC[C@H](OC(=O)CCc6cn(CC(=O)*)nn6)C(C)(C)[C@@H]5CC[C@]43C)[C@@H]12; X5 = C=C(C)[C@@H]1CC[C@]2(C(=O)OCc3cn(CC(=O)*)nn3)CC[C@]3(C)[C@H](CC[C@@H]4[C@@]5(C)CC[C@H](OC(C)=O)C(C)(C)[C@@H]5CC[C@]43C)[C@@H]12; X4 = C=C(C)[C@@H]1CC[C@]2(C(=O)OCc3cn(CC(=O)*)nn3)CC[C@]3(C)[C@H](CC[C@@H]4[C@@]5(C)CC[C@H](O)C(C)(C)[C@@H]5CC[C@]43C)[C@@H]12; X6 = CC1(C)CC[C@]2(C(=O)O)CC[C@]3(C)C(=CC[C@@H]4[C@@]5(C)CC[C@H](OC(=O)CCc6cn(CC(=O)*)nn6)C(C)(C)[C@@H]5CC[C@]43C)[C@@H]2C1; X11 = CCCc1cn(CC(=O)*)nn1; βAla = NCCC(=O)O

Test: Inhibition of HIV1 gp41-induced cell-cell fusion between viral envelope expressing human HL2/3 cells to CD4/CCR5 receptor expressing TZM-bl cells after 6 to 8 hrs by luciferase assay

| EC50 | Structure (SMILES) |
| --- | --- |
| 20 nM | C=C(C)[C@@H]1CC[C@]2(C(=O)OCc3cn(CC(=O)NCCCC[C@H](NC(=O)CCNC(=O)[C@H](CC(C)C)NC(=O)[C@H](CC(C)C)NC(=O)[C@H](CCC(=O)O)NC(=O)[C@H](CCC(N)=O)NC(=O)[C@H](CCC(=O)O)NC(=O)[C@H](CC(N)=O)NC(=O)[C@H](CCCCN)NC(=O)[C@H](CCC(=O)O)NC(=O)[C@H](CCC(N)=O)NC(=O)[C@H](CCC(N)=O)NC(=O)[C@H](CC(N)=O)NC(=O)[C@H](CCC(N)=O)NC(=O)[C@H](CO)NC(=O)[C@H](CCC(=O)O)NC(=O)[C@H](CCC(=O)O)NC(=O)[C@@H](NC(=O)[C@H](CC(C)C)NC(=O)[C@H](CO)NC(=O)[C@H](Cc4cnc[nH]4)NC(=O)[C@@H](NC(=O)[C@H](CC(C)C)NC(=O)[C@H](CO)NC(=O)[C@@H](NC(=O)[C@H](Cc4ccc(O)cc4)NC(=O)[C@H](CC(N)=O)NC(=O)[C@H](CC(N)=O)NC(C)=O)[C@@H](C)O)[C@@H](C)CC)[C@@H](C)CC)C(N)=O)nn3)CC[C@]3(C)[C@H](CC[C@@H]4[C@@]5(C)CC[C@H](O)C(C)(C)[C@@H]5CC[C@]43C)[C@@H]12 (Ac-NNYTSLIHSLIEESQNQQEKNEQELL[βAla]K(X4)-NH2) |
| 7.9 nM | C=C(C)[C@@H]1CC[C@]2(C(=O)OCc3cn(CC(=O)NCCCC[C@H](NC(=O)CCNC(=O)[C@H](CC(C)C)NC(=O)[C@H](CC(C)C)NC(=O)[C@H](CCC(=O)O)NC(=O)[C@H](CCC(N)=O)NC(=O)[C@H](CCC(=O)O)NC(=O)[C@H](CC(N)=O)NC(=O)[C@H](CCCCN)NC(=O)[C@H](CCC(=O)O)NC(=O)[C@H](CCC(N)=O)NC(=O)[C@H](CCC(N)=O)NC(=O)[C@H](CC(N)=O)NC(=O)[C@H](CCC(N)=O)NC(=O)[C@H](CO)NC(=O)[C@H](CCC(=O)O)NC(=O)[C@H](CCC(=O)O)NC(=O)[C@@H](NC(=O)[C@H](CC(C)C)NC(=O)[C@H](CO)NC(=O)[C@H](Cc4cnc[nH]4)NC(=O)[C@@H](NC(=O)[C@H](CC(C)C)NC(=O)[C@H](CO)NC(=O)[C@@H](NC(=O)[C@H](Cc4ccc(O)cc4)NC(=O)[C@H](CC(N)=O)NC(=O)[C@H](CC(N)=O)NC(C)=O)[C@@H](C)O)[C@@H](C)CC)[C@@H](C)CC)C(N)=O)nn3)CC[C@]3(C)[C@H](CC[C@@H]4[C@@]5(C)CC[C@H](OC(C)=O)C(C)(C)[C@@H]5CC[C@]43C)[C@@H]12 (Ac-NNYTSLIHSLIEESQNQQEKNEQELL[βAla]K(X5)-NH2) |
| 3.4 nM | C=CCOC(=O)[C@]12CC[C@@H](C)[C@H](C)[C@H]1C1=CC[C@@H]3[C@@]4(C)CC[C@H](OC(=O)CCc5cn(CC(=O)NCCCC[C@H](NC(=O)CCNC(=O)[C@H](CC(C)C)NC(=O)[C@H](CC(C)C)NC(=O)[C@H](CCC(=O)O)NC(=O)[C@H](CCC(N)=O)NC(=O)[C@H](CCC(=O)O)NC(=O)[C@H](CC(N)=O)NC(=O)[C@H](CCCCN)NC(=O)[C@H](CCC(=O)O)NC(=O)[C@H](CCC(N)=O)NC(=O)[C@H](CCC(N)=O)NC(=O)[C@H](CC(N)=O)NC(=O)[C@H](CCC(N)=O)NC(=O)[C@H](CO)NC(=O)[C@H](CCC(=O)O)NC(=O)[C@H](CCC(=O)O)NC(=O)[C@@H](NC(=O)[C@H](CC(C)C)NC(=O)[C@H](CO)NC(=O)[C@H](Cc6cnc[nH]6)NC(=O)[C@@H](NC(=O)[C@H](CC(C)C)NC(=O)[C@H](CO)NC(=O)[C@@H](NC(=O)[C@H](Cc6ccc(O)cc6)NC(=O)[C@H](CC(N)=O)NC(=O)[C@H](CC(N)=O)NC(C)=O)[C@@H](C)O)[C@@H](C)CC)[C@@H](C)CC)C(N)=O)nn5)C(C)(C)[C@@H]4CC[C@@]3(C)[C@]1(C)CC2 (Ac-NNYTSLIHSLIEESQNQQEKNEQELL[βAla]K(X9)-NH2) |
| 2180 nM | CCCc1cn(CC(=O)NCCCC[C@H](NC(=O)CCNC(=O)[C@H](CC(C)C)NC(=O)[C@H](CC(C)C)NC(=O)[C@H](CCC(=O)O)NC(=O)[C@H](CCC(N)=O)NC(=O)[C@H](CCC(=O)O)NC(=O)[C@H](CC(N)=O)NC(=O)[C@H](CCCCN)NC(=O)[C@H](CCC(=O)O)NC(=O)[C@H](CCC(N)=O)NC(=O)[C@H](CCC(N)=O)NC(=O)[C@H](CC(N)=O)NC(=O)[C@H](CCC(N)=O)NC(=O)[C@H](CO)NC(=O)[C@H](CCC(=O)O)NC(=O)[C@H](CCC(=O)O)NC(=O)[C@@H](NC(=O)[C@H](CC(C)C)NC(=O)[C@H](CO)NC(=O)[C@H](Cc2cnc[nH]2)NC(=O)[C@@H](NC(=O)[C@H](CC(C)C)NC(=O)[C@H](CO)NC(=O)[C@@H](NC(=O)[C@H](Cc2ccc(O)cc2)NC(=O)[C@H](CC(N)=O)NC(=O)[C@H](CC(N)=O)NC(C)=O)[C@@H](C)O)[C@@H](C)CC)[C@@H](C)CC)C(N)=O)nn1 (Ac-NNYTSLIHSLIEESQNQQEKNEQELL[βAla]K(X11)-NH2) |
| 197 nM | C=CCOC(=O)[C@]12CC[C@@H](C(=C)C)[C@@H]1[C@H]1CC[C@@H]3[C@@]4(C)CC[C@H](OC(=O)CCc5cn(CC(=O)NCCC(=O)N[C@@H](CC(N)=O)C(=O)N[C@@H](CC(N)=O)C(=O)N[C@@H](Cc6ccc(O)cc6)C(=O)N[C@H](C(=O)N[C@@H](CO)C(=O)N[C@@H](CC(C)C)C(=O)N[C@H](C(=O)N[C@@H](Cc6cnc[nH]6)C(=O)N[C@@H](CO)C(=O)N[C@@H](CC(C)C)C(=O)N[C@H](C(=O)N[C@@H](CCC(=O)O)C(=O)N[C@@H](CCC(=O)O)C(=O)N[C@@H](CO)C(=O)N[C@@H](CCC(N)=O)C(=O)N[C@@H](CC(N)=O)C(=O)N[C@@H](CCC(N)=O)C(=O)N[C@@H](CCC(N)=O)C(=O)N[C@@H](CCC(=O)O)C(=O)N[C@@H](CCCCN)C(=O)N[C@@H](CC(N)=O)C(=O)N[C@@H](CCC(=O)O)C(=O)N[C@@H](CCC(N)=O)C(=O)N[C@@H](CCC(=O)O)C(=O)N[C@@H](CC(C)C)C(=O)N[C@@H](CC(C)C)C(N)=O)[C@@H](C)CC)[C@@H](C)CC)[C@@H](C)O)nn5)C(C)(C)[C@@H]4CC[C@@]3(C)[C@]1(C)CC2 ({X1-βAla}-NNYTSLIHSLIEESQNQQEKNEQELL-NH2) |
| 15 nM | C=C(C)[C@@H]1CC[C@]2(C(=O)O)CC[C@]3(C)[C@H](CC[C@@H]4[C@@]5(C)CC[C@H](OC(=O)CCc6cn(CC(=O)NCCC(=O)N[C@@H](CC(N)=O)C(=O)N[C@@H](CC(N)=O)C(=O)N[C@@H](Cc7ccc(O)cc7)C(=O)N[C@H](C(=O)N[C@@H](CO)C(=O)N[C@@H](CC(C)C)C(=O)N[C@H](C(=O)N[C@@H](Cc7cnc[nH]7)C(=O)N[C@@H](CO)C(=O)N[C@@H](CC(C)C)C(=O)N[C@H](C(=O)N[C@@H](CCC(=O)O)C(=O)N[C@@H](CCC(=O)O)C(=O)N[C@@H](CO)C(=O)N[C@@H](CCC(N)=O)C(=O)N[C@@H](CC(N)=O)C(=O)N[C@@H](CCC(N)=O)C(=O)N[C@@H](CCC(N)=O)C(=O)N[C@@H](CCC(=O)O)C(=O)N[C@@H](CCCCN)C(=O)N[C@@H](CC(N)=O)C(=O)N[C@@H](CCC(=O)O)C(=O)N[C@@H](CCC(N)=O)C(=O)N[C@@H](CCC(=O)O)C(=O)N[C@@H](CC(C)C)C(=O)N[C@@H](CC(C)C)C(N)=O)[C@@H](C)CC)[C@@H](C)CC)[C@@H](C)O)nn6)C(C)(C)[C@@H]5CC[C@]43C)[C@@H]12 ({X3-βAla}-NNYTSLIHSLIEESQNQQEKNEQELL-NH2) |
| 89 nM | C=C(C)[C@@H]1CC[C@]2(C(=O)OCc3cn(CC(=O)NCCC(=O)N[C@@H](CC(N)=O)C(=O)N[C@@H](CC(N)=O)C(=O)N[C@@H](Cc4ccc(O)cc4)C(=O)N[C@H](C(=O)N[C@@H](CO)C(=O)N[C@@H](CC(C)C)C(=O)N[C@H](C(=O)N[C@@H](Cc4cnc[nH]4)C(=O)N[C@@H](CO)C(=O)N[C@@H](CC(C)C)C(=O)N[C@H](C(=O)N[C@@H](CCC(=O)O)C(=O)N[C@@H](CCC(=O)O)C(=O)N[C@@H](CO)C(=O)N[C@@H](CCC(N)=O)C(=O)N[C@@H](CC(N)=O)C(=O)N[C@@H](CCC(N)=O)C(=O)N[C@@H](CCC(N)=O)C(=O)N[C@@H](CCC(=O)O)C(=O)N[C@@H](CCCCN)C(=O)N[C@@H](CC(N)=O)C(=O)N[C@@H](CCC(=O)O)C(=O)N[C@@H](CCC(N)=O)C(=O)N[C@@H](CCC(=O)O)C(=O)N[C@@H](CC(C)C)C(=O)N[C@@H](CC(C)C)C(N)=O)[C@@H](C)CC)[C@@H](C)CC)[C@@H](C)O)nn3)CC[C@]3(C)[C@H](CC[C@@H]4[C@@]5(C)CC[C@H](O)C(C)(C)[C@@H]5CC[C@]43C)[C@@H]12 ({X4-βAla}-NNYTSLIHSLIEESQNQQEKNEQELL-NH2) |
| 327 nM | C=C(C)[C@@H]1CC[C@]2(C(=O)OCc3cn(CC(=O)NCCC(=O)N[C@@H](CC(N)=O)C(=O)N[C@@H](CC(N)=O)C(=O)N[C@@H](Cc4ccc(O)cc4)C(=O)N[C@H](C(=O)N[C@@H](CO)C(=O)N[C@@H](CC(C)C)C(=O)N[C@H](C(=O)N[C@@H](Cc4cnc[nH]4)C(=O)N[C@@H](CO)C(=O)N[C@@H](CC(C)C)C(=O)N[C@H](C(=O)N[C@@H](CCC(=O)O)C(=O)N[C@@H](CCC(=O)O)C(=O)N[C@@H](CO)C(=O)N[C@@H](CCC(N)=O)C(=O)N[C@@H](CC(N)=O)C(=O)N[C@@H](CCC(N)=O)C(=O)N[C@@H](CCC(N)=O)C(=O)N[C@@H](CCC(=O)O)C(=O)N[C@@H](CCCCN)C(=O)N[C@@H](CC(N)=O)C(=O)N[C@@H](CCC(=O)O)C(=O)N[C@@H](CCC(N)=O)C(=O)N[C@@H](CCC(=O)O)C(=O)N[C@@H](CC(C)C)C(=O)N[C@@H](CC(C)C)C(N)=O)[C@@H](C)CC)[C@@H](C)CC)[C@@H](C)O)nn3)CC[C@]3(C)[C@H](CC[C@@H]4[C@@]5(C)CC[C@H](OC(C)=O)C(C)(C)[C@@H]5CC[C@]43C)[C@@H]12 ({X5-βAla}-NNYTSLIHSLIEESQNQQEKNEQELL-NH2) |
| 29 nM | CC[C@H](C)[C@H](NC(=O)[C@H](CC(C)C)NC(=O)[C@H](CO)NC(=O)[C@H](Cc1cnc[nH]1)NC(=O)[C@@H](NC(=O)[C@H](CC(C)C)NC(=O)[C@H](CO)NC(=O)[C@@H](NC(=O)[C@H](Cc1ccc(O)cc1)NC(=O)[C@H](CC(N)=O)NC(=O)[C@H](CC(N)=O)NC(=O)CCNC(=O)Cn1cc(CCC(=O)O[C@H]2CC[C@]3(C)[C@H]4CC=C5[C@@H]6CC(C)(C)CC[C@]6(C(=O)O)CC[C@@]5(C)[C@]4(C)CC[C@H]3C2(C)C)nn1)[C@@H](C)O)[C@@H](C)CC)C(=O)N[C@@H](CCC(=O)O)C(=O)N[C@@H](CCC(=O)O)C(=O)N[C@@H](CO)C(=O)N[C@@H](CCC(N)=O)C(=O)N[C@@H](CC(N)=O)C(=O)N[C@@H](CCC(N)=O)C(=O)N[C@@H](CCC(N)=O)C(=O)N[C@@H](CCC(=O)O)C(=O)N[C@@H](CCCCN)C(=O)N[C@@H](CC(N)=O)C(=O)N[C@@H](CCC(=O)O)C(=O)N[C@@H](CCC(N)=O)C(=O)N[C@@H](CCC(=O)O)C(=O)N[C@@H](CC(C)C)C(=O)N[C@@H](CC(C)C)C(N)=O ({X6-βAla}-NNYTSLIHSLIEESQNQQEKNEQELL-NH2) |
